Experimental findings from PubChem BioAssay (NCI) are described below.

Test systems include SF-539 CNS; M14 melanoma; TK-10 renal; UACC-257 melanoma; ACHN renal; RXF 393 renal; OVCAR-3 ovarian; NCI-H23 lung; SK-MEL-2 melanoma; MCF7 breast; RPMI-8226 leukemia; A549 NSCLC; SW-620 colon; SNB-75 CNS; SN12C renal; NCI-H226 lung; A498 renal; K-562 leukemia; HOP-62 NSCLC.
Experiment in all cases: DTP human tumour cell line panel, 48 h

Each structure is given as a SMILES string.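 Tested at 5 concentrations; 48 h exposure; 96-well plates; endpoints linearly interpolated, else capped at highest concentration. Definition used: TGI = concentration required for complete inhibition of growth.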

With `COc1cc(C2S/C(=C/c3ccccc3)C(=O)N2c2ccc([N+](=O)[O-])cc2)cc(OC)c1OC` (stereo not given), the TGI in the experiment with SF-539 CNS, with M14 melanoma, with TK-10 renal, in the experiment on UACC-257 melanoma, in the experiment on ACHN renal and with RXF 393 renal was over 100 µM each time. The TGI with OVCAR-3 ovarian, in the experiment on NCI-H23 lung, in the experiment with SK-MEL-2 melanoma, in the experiment with MCF7 breast, with RPMI-8226 leukemia and in the experiment with A549 NSCLC was over 100 µM each time. Moreover, the TGI in the experiment on SW-620 colon, with SNB-75 CNS, with SN12C renal, in the experiment on NCI-H226 lung, in the experiment with A498 renal and with K-562 leukemia was over 100 µM throughout. The compound further came in with a TGI in the experiment on HOP-62 NSCLC of over 100 µM.

Regarding `CCO/C(O)=C(/C(=N)N1CCCC1)C(=O)Nc1ccc(Cl)cc1`, the TGI in the experiment with SF-539 CNS, with M14 melanoma, in the experiment with TK-10 renal, in the experiment on UACC-257 melanoma, in the experiment on ACHN renal and in the experiment on RXF 393 renal was over 100 µM throughout. Besides, the TGI in the experiment on OVCAR-3 ovarian, with NCI-H23 lung, in the experiment on SK-MEL-2 melanoma, in the experiment on MCF7 breast, with RPMI-8226 leukemia and with A549 NSCLC was over 100 µM in each case. The TGI with SW-620 colon, in the experiment with SNB-75 CNS, in the experiment with SN12C renal, in the experiment on NCI-H226 lung, with A498 renal and in the experiment on K-562 leukemia was over 100 µM throughout. The same compound displayed a TGI with HOP-62 NSCLC of over 100 µM.

On to `N#CC(C#N)=C1CCCCc2ccc([N+](=O)[O-])cc21`, for which the TGI in the experiment on SF-539 CNS, with M14 melanoma, in the experiment with TK-10 renal, with UACC-257 melanoma, with ACHN renal and in the experiment with RXF 393 renal was over 100 µM in each case. In addition, the TGI in the experiment on OVCAR-3 ovarian was over 100 µM; in the experiment with NCI-H23 lung it was over 100 µM; in the experiment on SK-MEL-2 melanoma, over 100 µM; in the experiment with MCF7 breast it was over 100 µM; in the experiment with RPMI-8226 leukemia, 87.5 µM; with A549 NSCLC, over 100 µM. The TGI in the experiment on SW-620 colon, in the experiment with SNB-75 CNS, with SN12C renal, in the experiment on NCI-H226 lung, in the experiment on A498 renal and in the experiment with K-562 leukemia was over 100 µM each time. This compound also returned a TGI in the experiment with HOP-62 NSCLC of over 100 µM.

Turning to `Cc1ccnc2c1ccc1nc3ccccc3n12`, the TGI in the experiment with SF-539 CNS, in the experiment with M14 melanoma, with TK-10 renal, with UACC-257 melanoma, in the experiment with RXF 393 renal and in the experiment with OVCAR-3 ovarian was over 100 µM each time. In addition, the TGI with NCI-H23 lung, in the experiment with SK-MEL-2 melanoma, in the experiment with MCF7 breast, with RPMI-8226 leukemia, with A549 NSCLC and in the experiment with SW-620 colon was over 100 µM throughout. In addition, the TGI with SNB-75 CNS, with SN12C renal, in the experiment on NCI-H226 lung, with A498 renal, in the experiment with K-562 leukemia and with HOP-62 NSCLC was over 100 µM throughout.

With `C#C[C@]1(O)CC[C@H]2[C@@H]3CCC4=C/C(=N\OCCN5CCCC5)CC[C@]4(C)[C@H]3CC[C@@]21C`, the concentration for total growth inhibition (TGI) with SF-539 CNS was 28.2 µM; in the experiment on M14 melanoma it was 22.5 µM; in the experiment with TK-10 renal, 38.3 µM; with UACC-257 melanoma it was 22.9 µM; in the experiment on ACHN renal, 47.2 µM; with RXF 393 renal, over 39.9 µM. For the same compound, the TGI was 27.1 µM with OVCAR-3 ovarian; 31.3 µM with NCI-H23 lung; 24.4 µM with SK-MEL-2 melanoma; 21.5 µM in the experiment on MCF7 breast; 13.2 µM with RPMI-8226 leukemia; over 59.8 µM with A549 NSCLC. For the same compound, the TGI was over 49.5 µM in the experiment on SW-620 colon; 24.7 µM with SNB-75 CNS; 43.7 µM with SN12C renal; 55.5 µM with NCI-H226 lung; 50.4 µM with A498 renal; over 39.2 µM in the experiment with K-562 leukemia. This compound also showed a TGI in the experiment with HOP-62 NSCLC of 26.7 µM.

Regarding `CC(C)(CCCCC(C)(C)NCC1COc2ccccc2O1)NCC1COc2ccccc2O1` (stereo not given), the TGI in the experiment on SF-539 CNS is 3.34 µM; with M14 melanoma it was 3.4 µM; with TK-10 renal it was over 10 µM; in the experiment with UACC-257 melanoma, 4.1 µM; with ACHN renal, over 10 µM; in the experiment on RXF 393 renal it was 8.83 µM. For the same compound, the TGI in the experiment with OVCAR-3 ovarian was over 10 µM; with NCI-H23 lung, over 10 µM; in the experiment on SK-MEL-2 melanoma it was 6.68 µM; with MCF7 breast it was over 10 µM; in the experiment with RPMI-8226 leukemia, over 10 µM; with A549 NSCLC it was over 10 µM. Besides, the TGI with SW-620 colon, with SNB-75 CNS, with SN12C renal, with NCI-H226 lung, in the experiment on A498 renal and with K-562 leukemia was over 10 µM in each case. This compound also yielded a TGI in the experiment with HOP-62 NSCLC of over 10 µM.

With `O=C(CCCN1CC=C(n2c(=O)[nH]c3ccccc32)CC1)c1cccs1`, the TGI in the experiment on SF-539 CNS, in the experiment on M14 melanoma, with TK-10 renal, in the experiment on UACC-257 melanoma, in the experiment with ACHN renal and in the experiment on RXF 393 renal was over 100 µM each time. Besides, the TGI in the experiment with OVCAR-3 ovarian, with NCI-H23 lung, with SK-MEL-2 melanoma, in the experiment on MCF7 breast, with RPMI-8226 leukemia and in the experiment on A549 NSCLC was over 100 µM in each case. For the same compound, the TGI with SW-620 colon, in the experiment on SNB-75 CNS, with SN12C renal, in the experiment on NCI-H226 lung, in the experiment with A498 renal and with K-562 leukemia was over 100 µM throughout. Moreover, the TGI in the experiment on HOP-62 NSCLC was over 100 µM.

As for `CC(C)C(Cl)CC/C(CBr)=C(\Cl)CCl` (stereo not given), the TGI in the experiment on SF-539 CNS amounted to 29.5 µM; in the experiment with M14 melanoma it was 4.06 µM; in the experiment on TK-10 renal it was 28 µM; in the experiment on UACC-257 melanoma, 11 µM; with ACHN renal it was 29.6 µM; with RXF 393 renal, 11.3 µM. The TGI in the experiment on OVCAR-3 ovarian turned out to be 10.4 µM; in the experiment with NCI-H23 lung, 8.65 µM; with SK-MEL-2 melanoma, 5.64 µM; in the experiment with MCF7 breast, 1.29 µM; with RPMI-8226 leukemia, 5 µM; in the experiment with A549 NSCLC, 36.1 µM. Further, the TGI was found to be 4.26 µM with SW-620 colon; 17 µM with SNB-75 CNS; 10.2 µM in the experiment with SN12C renal; 22.2 µM with NCI-H226 lung; 35.7 µM in the experiment on A498 renal; 3.69 µM in the experiment with K-562 leukemia. In addition, the TGI in the experiment on HOP-62 NSCLC was 31.1 µM.

As to `O=C1CCSc2c(cnc3ccccc23)N1`, the TGI in the experiment with SF-539 CNS, in the experiment on M14 melanoma, in the experiment with TK-10 renal, in the experiment on UACC-257 melanoma, in the experiment with ACHN renal and in the experiment on RXF 393 renal was over 100 µM throughout. Besides, the TGI in the experiment with OVCAR-3 ovarian, with NCI-H23 lung, with SK-MEL-2 melanoma, in the experiment with MCF7 breast, in the experiment with RPMI-8226 leukemia and with A549 NSCLC was over 100 µM each time. The TGI in the experiment with SW-620 colon, with SNB-75 CNS, in the experiment with SN12C renal, in the experiment with NCI-H226 lung, in the experiment with A498 renal and in the experiment on K-562 leukemia was over 100 µM throughout. This compound displayed a TGI in the experiment with HOP-62 NSCLC of over 100 µM.

Take `Cc1ccnc2nc3[nH]c4ccccc4c3cc12`: the TGI in the experiment on SF-539 CNS, in the experiment with M14 melanoma, in the experiment on TK-10 renal, in the experiment on UACC-257 melanoma, in the experiment with ACHN renal and with RXF 393 renal was over 100 µM each time. The TGI in the experiment with OVCAR-3 ovarian, in the experiment with NCI-H23 lung, in the experiment on SK-MEL-2 melanoma, in the experiment with MCF7 breast, with RPMI-8226 leukemia and in the experiment with A549 NSCLC was over 100 µM each time. The TGI with SW-620 colon was over 100 µM; in the experiment on SNB-75 CNS it was 85.8 µM; with SN12C renal, over 100 µM; in the experiment with NCI-H226 lung it was over 100 µM; with A498 renal, over 100 µM; with K-562 leukemia, over 100 µM. The compound also came in with a TGI in the experiment on HOP-62 NSCLC of over 100 µM.

For `CNC(=S)NNC1=NCCCCN1`, the TGI in the experiment with SF-539 CNS, in the experiment with M14 melanoma, in the experiment on TK-10 renal, with UACC-257 melanoma, in the experiment on ACHN renal and in the experiment on RXF 393 renal was over 100 µM throughout. For the same compound, the TGI in the experiment on OVCAR-3 ovarian, in the experiment on NCI-H23 lung, in the experiment on SK-MEL-2 melanoma, in the experiment with MCF7 breast, in the experiment with RPMI-8226 leukemia and in the experiment on A549 NSCLC was over 100 µM in each case. In addition, the TGI in the experiment on SW-620 colon, in the experiment on SNB-75 CNS, with NCI-H226 lung, in the experiment on A498 renal, with K-562 leukemia and in the experiment on HOP-62 NSCLC was over 100 µM each time.

As to `NC(=O)NC(=O)c1ccc(NC(=O)CBr)cc1`, the TGI in the experiment on SF-539 CNS was found to be 6.35 µM; in the experiment on TK-10 renal, 2.68 µM; in the experiment on UACC-257 melanoma, 5.29 µM; with ACHN renal it was 2.91 µM; with RXF 393 renal, 3.32 µM; with OVCAR-3 ovarian, 2.74 µM. In addition, the TGI is 4.59 µM in the experiment with NCI-H23 lung; 4.61 µM with SK-MEL-2 melanoma; 4.9 µM in the experiment on MCF7 breast; 3.59 µM with RPMI-8226 leukemia; over 32.6 µM with A549 NSCLC; 1.74 µM in the experiment on SW-620 colon. Also, the TGI in the experiment with SNB-75 CNS stood at 4.19 µM; in the experiment with SN12C renal it was 1.18 µM; with NCI-H226 lung it was 10.2 µM; in the experiment with A498 renal it was 36 µM; in the experiment on K-562 leukemia, 3.92 µM; in the experiment on HOP-62 NSCLC, 4.81 µM.

Usually TGI stands for the concentration giving total growth inhibition. Read a low TGI as greater sensitivity of the cells.
